Assay: Ionizing radiation initiated polymerization of liposomes, by loss of monomer absorption intensity
Format: physicochemical
Details: for dependence of extent of polymerization on continuous or discontinuous exposure: ionizing radiation; for effect of dissolved oxygen on ionizing radiation initiated polymerization: liposomes in aqueous buffer, maximum dose rate 2.1×10^4 rad/h
Source text: The relative sensitivity to ionizing radiation of liposomes composed of either bis-SorbPC (1; FIG. 5), bis-DenPC (2; FIG. 5), or bis-AcrylPC (3; FIG. 5) was investigated. These polymerizable colipids have different reactivities that control the initial rate of polymerization, extent of polymerization, and inhibition by oxygen. The interaction of ionizing radiation with water produces radical species that can initiate radical chain polymerizations.
The rate of the ionizing radiation initiated polymerization (Rp) of liposomes composed of either bis-SorbPC, bis-DenPC, or bis-AcrylPC was determined by the loss of monomer absorption intensity. The maximum dose rate at the liposome samples was 2.1×10^4 rad/h. This intensity could be attenuated if desired. […] Radical polymerization of acryloyl functionalities are very sensitive to oxygen due to the high energy of the propagating species. In contrast, if the bis-AcrylPC liposome suspension was purged of oxygen the monomer could be converted to polymer in a few minutes. The Rp for bis-SorbPC liposomes in water (with or without oxygen present) was about twice that of bis-DenPC liposomes. The liposomes composed of bis-AcrylPC (without oxygen) were about 10 times more reactive than bis-SorbPC liposomes.
The usual experimental protocol for radiation exposure of the liposome samples utilized discontinuous exposure because samples for all the time points were exposed together. […] In some experiments the samples were exposed continuously. The percent loss of monomer depended on the total exposure, but was insensitive to whether the radiation was delivered in a continuous or punctuated manner.

| time for conversion of monomer to polymer (liposome suspension purged of oxygen) | change in monomer concentration (oxygen present, after 120 minutes of irradiation at the maximum dose rate) | reactivity relative to bis-SorbPC liposomes (without oxygen) | rate of polymerization (Rp) relative to bis-DenPC liposomes (liposomes in water, with or without oxygen present) | Compound | dependence of extent of polymerization on continuous or discontinuous exposure | effect of dissolved oxygen on ionizing radiation initiated polymerization |
| --- | --- | --- | --- | --- | --- | --- |
| a few minutes | no change in the monomer concentration | about 10 times | – | bis-AcrylPC | independent of whether the exposure to ionizing radiation was continuous or discontinuous | inhibited by oxygen |
| – | – | – | – | bis-DenPC | – | relatively insensitive to the presence of dissolved oxygen |
| – | – | – | about twice | CC=CC=CC(=O)OCCCCCCCCCC(=O)OC[C@H](COP(=O)([O-])OCC[N+](C)(C)C)OC(=O)CCCCCCCCCOC(=O)C=CC=CC [bis-SorbPC] | independent of whether the exposure to ionizing radiation was continuous or discontinuous | relatively insensitive to the presence of dissolved oxygen |

From patent US6989153B2, “Radiation sensitive liposomes” (Varian Medical Systems Technologies, Inc., priority 1999, dated 2006)
